These results are taken from patent US20240226131A1, “2'-CHLORO-2'-FLUORO-N2-AMINO-N6-M[…] NUCLEOTIDES FOR […]” (priority 2021, published 2024).

The subject of series [1] is West Nile virus (WN02 Kern 515). The series is described as follows: microbe, parasite or virus in culture. In kind it is cell-based. To be noted: Huh-7, 144 h, read-out: EC50 (concentration required to prevent virus-induced CPE by 50%).
Another series in a line: in vitro. To be noted: human.
The subject of series [2] is Yellow Fever virus (YFV 17D). The series is described as follows: microbe, parasite or virus in culture. In kind it is cell-based. To be noted: Huh-7, 120 h, read-out: EC50 (concentration required to prevent virus-induced CPE by 50%).
In series [3] the test system is Dengue virus (DENV-2), New Guinea C. The series is described as follows: microbe, parasite or virus in culture. The format is cell-based. Particulars: DENV2, Huh-7, 144 h, read-out: EC50 (concentration required to prevent virus-induced CPE by 50%).

Consider `CNc1nc(N)nc2c1ncn2[C@@H]1O[C@H](CO[P@@](=O)(N[C@@H](C)C(=O)OC(C)C)Oc2ccccc2)[C@@H](O)[C@]1(F)Cl` [Compound 8, (S)-Isopropyl-2-(((S)-(((2R,3R,4S,5R)-5-(2-amino-6-(methylamino)-9H-purin-9-yl)-4-chloro-4-fluoro-3-hydroxytetrahydrofuran-2-yl)methoxy)(phenoxy)phosphoryl)amino) propanoate], for which the EC50 in series [1] amounted to 320 nM; in series [2] it was 120 nM; in series [3], 320 nM. Moreover, the CC50 in the series “in vitro” was > 100000 nM.
